We go through 13 molecules from US4537773A, “α-Aminoboronic acid derivatives” (E. I. Du Pont de Nemours and Company, priority 1983, dated 1985).

The structures appear in SMILES notation. Where a name gives a salt, the structure may show the parent alone.

In assay [1] the test system is Leaf Hopper. Description: Insecticidal activity, leaf hopper. To be noted: application rate of 5 lb./acre. In kind it is in vivo.
Assay [2] has as its system Ant. The assay is described as follows: Insecticidal activity, ant feeding. It is filed as in vivo. To be noted: application rate of 5 lb./acre.
Assay [3] concerns Bollworm. Description: Insecticidal activity, bollworm. In kind it is in vivo. The following applies: application rate of 5 lb./acre.
In assay [4] the test system is Mite. The assay is described as follows: Insecticidal activity, mite. It is filed as in vivo. To be noted: application rate of 5 lb./acre.
Assay [5] relates to Bean aphid. Description: Insecticidal activity, bean aphid. To be noted: application rate of 5 lb./acre. In kind it is in vivo.
Assay [6] has as its target T1, Leucine aminopeptidase (cytosolic) (LAPC) (Sus scrofa, UniProt P28839).
T1 construct: (LAPC) from hog kidney; from tissue; host or cells: hog kidney
T1 sequence (P28839 33-519 limits assumed): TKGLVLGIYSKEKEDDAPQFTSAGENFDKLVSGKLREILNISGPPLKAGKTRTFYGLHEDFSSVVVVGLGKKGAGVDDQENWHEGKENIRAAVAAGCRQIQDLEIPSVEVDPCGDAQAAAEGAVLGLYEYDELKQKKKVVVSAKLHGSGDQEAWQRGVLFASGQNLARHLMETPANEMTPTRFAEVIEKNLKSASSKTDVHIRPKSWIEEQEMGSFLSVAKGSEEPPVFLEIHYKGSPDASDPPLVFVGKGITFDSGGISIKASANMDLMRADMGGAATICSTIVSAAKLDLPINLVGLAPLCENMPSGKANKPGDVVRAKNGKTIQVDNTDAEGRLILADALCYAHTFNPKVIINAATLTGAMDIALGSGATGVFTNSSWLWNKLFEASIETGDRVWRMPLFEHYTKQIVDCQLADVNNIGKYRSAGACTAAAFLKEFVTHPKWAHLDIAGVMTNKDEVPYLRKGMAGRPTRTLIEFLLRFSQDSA
Description: IC50 with leucine aminopeptidase (cytosolic). The following applies: 112 hours at 0°-5°, pH 8.5, substrate (L)-leucine-p-nitroanilide, absorption at 405 nm. It is filed as biochemical, hog. An excerpt:
(§1) An IC50 value represents an approximation of the concentration of enzyme inhibitor required to inhibit enzyme activity by fifty percent. These values represent acceptable approximations of the inhibition constant KI, the dissociation constant in the following equation: [formula] where [E] is the concentration of enzyme, [I] is the concentration of inhibitor and [EI] is the concentration of enzyme/inhibitor complex.
(§2) Determination of IC50 values for LAPC and LAPM was accomplished by spectrophotometrically or fluorometrically following the rate of formation of p-nitroaniline or β-naphthylamine from hydrolysis of (L)-leucine-p-nitroanilide or (L)-leucine-β-napthylamide, respectively, in the presence of active enzyme. IC50 values for HEDA were determined by monitoring, via high pressure liquid chromatography, the formation of destyr-enkephalin from leu-enkephalin.
Assay mixtures were prepared, containing 10×10^-8 M LAPC, 1 mg/mL BSA, 0.025M MgCl2 and 0.01M tris-HCl buffer, pH 8.5, in a total volume of 2.7 mL. Varying amounts of selected compounds 5, dissolved in the same buffer, were added to make a final volume of 3.0 mL. After storage for 112 hours at 0°-5°, 1 mL of this mixture was treated with 25 μL of a 0.1M (L)-leucine-p-nitroanilide in dimethylsulfoxide, and the rate of increase of absorption at 405 nm was measured. IC50 values were calculated as in Example 26, above.

The target in assay [7] is Human enkephalin-degrading aminopeptidase (HEDA). Description: IC50 with human enkephalin-degrading aminopeptidase. In kind it is biochemical. To be noted: incubated at 37° for 2 hours, pH 7.8, substrate leu-enkephalin, HPLC. An excerpt:
An IC50 value represents an approximation of the concentration of enzyme inhibitor required to inhibit enzyme activity by fifty percent. These values represent acceptable approximations of the inhibition constant KI, the dissociation constant in the following equation: [formula] where [E] is the concentration of enzyme, [I] is the concentration of inhibitor and [EI] is the concentration of enzyme/inhibitor complex. Determination of IC50 values for LAPC and LAPM was accomplished by spectrophotometrically or fluorometrically following the rate of formation of p-nitroaniline or β-naphthylamine from hydrolysis of (L)-leucine-p-nitroanilide or (L)-leucine-β-napthylamide, respectively, in the presence of active enzyme. IC50 values for HEDA were determined by monitoring, via high pressure liquid chromatography, the formation of […]-enkephalin from leu-enkephalin. […] At this point, 15 μL of a 10 mM solution of leu-enkephalin, acetic acid salt in 2 mM phosphate buffer, pH 7.8, were added to each sample mixture. […] Detection was by ultraviolet absorption at 215 nm. A ratio of a peak corresponding to ([…])-enkephalin at about […] and a peak corresponding to leu-enkephalin at about 3.9 min. indicated reaction progress. The rate of increase of this ratio corresponded to the rate of enzyme hydrolysis of substrate leu-enkephalin.

For assay [8], the target named is T2, Leucine aminopeptidase (Microsomal) (LAPM) (Sus scrofa, UniProt P15145).
T2 construct: (LAPM) from hog kidney; from tissue; host or cells: hog kidney
T2 sequence (P15145 1-963): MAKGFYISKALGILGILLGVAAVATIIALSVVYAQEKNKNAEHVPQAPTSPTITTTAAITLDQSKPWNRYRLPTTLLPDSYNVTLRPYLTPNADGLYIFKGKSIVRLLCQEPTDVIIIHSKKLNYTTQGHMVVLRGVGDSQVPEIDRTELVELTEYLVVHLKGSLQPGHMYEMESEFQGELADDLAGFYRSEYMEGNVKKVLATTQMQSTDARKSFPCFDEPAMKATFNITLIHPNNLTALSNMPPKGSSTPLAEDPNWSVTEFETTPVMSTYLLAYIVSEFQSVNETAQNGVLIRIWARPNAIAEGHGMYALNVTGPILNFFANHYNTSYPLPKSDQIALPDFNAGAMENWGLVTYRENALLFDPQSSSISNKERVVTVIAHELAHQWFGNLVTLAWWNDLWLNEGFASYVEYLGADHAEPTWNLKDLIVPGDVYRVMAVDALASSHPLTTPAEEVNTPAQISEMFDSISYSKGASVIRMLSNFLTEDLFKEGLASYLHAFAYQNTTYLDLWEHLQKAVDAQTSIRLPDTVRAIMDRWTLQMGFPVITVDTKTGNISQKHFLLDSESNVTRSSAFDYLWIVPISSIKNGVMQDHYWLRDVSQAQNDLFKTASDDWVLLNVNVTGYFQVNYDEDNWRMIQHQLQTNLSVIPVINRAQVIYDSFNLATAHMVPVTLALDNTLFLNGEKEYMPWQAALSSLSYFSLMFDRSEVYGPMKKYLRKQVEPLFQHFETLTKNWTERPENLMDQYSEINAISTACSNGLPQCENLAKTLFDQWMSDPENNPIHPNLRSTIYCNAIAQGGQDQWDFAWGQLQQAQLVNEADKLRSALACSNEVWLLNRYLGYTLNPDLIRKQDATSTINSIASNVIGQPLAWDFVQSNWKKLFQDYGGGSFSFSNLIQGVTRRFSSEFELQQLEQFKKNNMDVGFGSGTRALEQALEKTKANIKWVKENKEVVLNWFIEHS
The assay is described as follows: IC50 with leucine aminopeptidase (microsomal). In kind it is biochemical, hog. To be noted: 72 hours at 0°-5°, pH 7.2, substrate (L)-leucine-β-napthylamide, fluorescence.
Source text: as §1, §2
Assay mixtures were prepared containing 0.613 μg LAPM, 10 μg/mL bovine serum albumin (BSA). 0.1M phosphate buffer, pH 7.2, in a total volume of 2.7 mL. Measured amounts of compounds 5 to be tested for inhibitory activity were added in additional 0.1M phosphate buffer to a total volume of 3 mL. After 72 hours at 0°-5°, 1 mL of the enzyme/inhibitor mixture was treated with 4 μL of 0.2M (L)-leucine-β-napthylamide in dimethylsulfoxide, and the rate of increase of fluorescence at 410 nm, while exciting at 310 nm. was measured. Control experiments were performed identically, except no inhibitor was present. The concentration of the selected compound 5 observed to decrease reaction rates by one-half was used to determine the value of IC50 for each compound. This was accomplished by subtracting one-half the concentration of enzyme present in the sample mixtures (1.6×10^-9 M) from the inhibitor concentration observed to decrease reaction rates by one-half.

Assay [9] deals with subtilisin. The following applies: Philipp, et al., FEBS Letters 133:36 (1971); cited from earlier work.
For assay [10], the target named is α-chymotrypsin (Bos taurus, UniProt P00766). To be noted: Matteson et al., J. Am. Chem. Soc. 103:5241 (1981); cited from earlier work.

For `CC(C)CB1OC(C)(C)C(C)(C)O1` [2 (R=CH3 CH(CH3)2), 4,4,5,5-tetramethyl-2-(2-methylpropyl)-1,3,2-dioxaborolane], the “Leaf Hopper, % control” value in assay [1] amounted to 50%. With `CB1OC(C)(C)C(C)(C)O1` [2 (R=CH3), 2,4,4,5,5-pentamethyl-1,3,2-dioxaborolane], the “Ant Feeding, % control” value in assay [2] was 31%. With `CCC(C)B1OC(C)(C)C(C)(C)O1` (stereo not drawn) [2 (R=CH(CH3)C2 H5), 2-(1-methylpropyl)-4,4,5,5-tetramethyl-1,3,2-dioxaborolane], the “Bollworm, % control” value in assay [3] was 20%. As for `CC1(C)OB(Cc2ccccc2)OC1(C)C` [2 (R=CHC6 H5), 4,4,5,5-tetramethyl-2-(phenylmethyl)-1,3,2-dioxaborolane], the “Mite, % control” value in assay [4] stood at 70%. As to `CC(C)CC(Cl)B1OC(C)(C)C(C)(C)O1` (stereo not drawn) [3 (R=CH3 CH(CH3)2), 2-(1-chloro-3-methylbutyl)-4,4,5,5-tetramethyl-1,3,2-dioxaborolane], in [4], the “Mite, % control” value is reported as 64%. As to `CCC(C)C(Cl)B1OC(C)(C)C(C)(C)O1` (stereo not drawn) [3 (R=CH(CH3)C2 H5), 2-(1-chloro-2-methylbutyl)-4,4,5,5-tetramethyl-1,3,2-dioxaborolane], the “Bean aphid, % control” value in [5] was 39%. On to `CC1(C)OB(C(Cl)Cc2ccccc2)OC1(C)C` (stereo not drawn) [3 (R=CHC6 H5), 2-(1-chloro-2-phenylethyl)-4,4,5,5-tetramethyl-1,3,2-dioxaborolane], for which, in [5], the “Bean aphid, % control” value came out at 48%. As to `CC1(C)OB(C(N)Cc2ccccc2)OC1(C)C` (stereo not drawn) [5 (R=CH2 C6 H5), 4,4,5,5-tetramethyl-α-(phenylmethyl)-1,3,2-dioxoborolane-2-methanamine, trifluoroacetic acid salt], the IC50 in assay [6] is 0.01 µM; in assay [7] it was 0.0052 µM; in [8], 0.0002 µM. On the same counts, the results for `CC(C)CC(N)B1OC(C)(C)C(C)(C)O1` (stereo not drawn) [5 (R=CH2 CH(CH3)2), 3-methyl-1-(4,4,5,5-tetramethyl-1,3,2-dioxaborolane-2-yl)-1-butamine, trifluoroacetic acid salt] are 0.15 µM, 0.0074 µM and 0.0012 µM. On the same counts, the results for `CC(N)B1OC(C)(C)C(C)(C)O1` (stereo not drawn) [5 (R=CH3), α,4,4,5,5,pentamethyl-1,3,2-dioxoborolane-2-methanamine, trifluoroacetic acid salt] are 30 µM, 0.071 µM and 0.0064 µM.

With `CC(C)C(N)B1OC(C)(C)C(C)(C)O1` (stereo not drawn) [5 (R=CH(CH3)2), 4,4,5,5-tetramethyl-α-(1-methylethyl)-1,3,2-dioxaborolane-2-methanamine, trifluoroacetic acid salt], the IC50 in [6] came out at 0.07 µM; in [7], 0.042 µM; in assay [8] it was 0.00215 µM. On the same counts, the results for `CCC(C)C(N)B1OC(C)(C)C(C)(C)O1` (stereo not drawn) [5 (R=CH(CH3)C2 H5), 4,4,5,5-tetramethyl-α-(1-methylpropyl)-1,3,2-dioxaborolane-2-methanamine, trifluoroacetic acid salt] are 0.03 µM, 0.041 µM and 0.0022 µM. `CC(=O)NC(Cc1ccccc1)B(O)O` (stereo not drawn) [IV]: the inhibition of subtilisin result in assay [9] was “inhibited”. In addition, the “inhibition of α-chymotrypsin” value in [10] is on record as “observed to inhibit”.

In general, IC50 refers to the concentration at which inhibition is half-maximal.
